# Literature values in article PMC7661967, “Magnetic Resonance Molecular Imaging of Extradomain B Fibronectin Improves Imaging of Pancreatic Cancer Tumor Xenografts” (Frontiers in Oncology, 2020).
# Test system: EDB-FN in PaCa
# Details: PET; cited from earlier work
# From the text: Molecular imaging of EDB-FN in cancer has been previously investigated with antibodies labeled with radioisotopes for PET imaging. Anti-EDN-FN antibody BC-1 was labeled with ^125I and tested in mice bearing U87 brain tumor and SKMel28 melanoma xenografts ([29]). […] Nanobodies with a smaller size were recently developed for molecular imaging of E ...
substance,measurement,value
ZD2-((68)Ga-NOTA) [ZD2 peptide labeled with ^68Ga],molecular imaging of EDB-FN in PaCa,sensitive and specific molecular imaging of EDB-FN in PaCa
